Experimental data published in patent publication US5637731A (priority 1996, dated 1997).
Where a name gives a salt, the structure may show the parent alone. Read-outs that look alike come from different tables or passages of the source.

What was measured:
[1] = biological target: muscarinic cholinergic receptor; format: binding, rat; details: rat cerebral cortex, ^3 H-QNB 0.25 nM, 25° C., 120 minutes, pH 7.4
[2] = biological target: muscarinic cholinergic receptor; test: [^3 H]-Cis-methyldioxolane (^3 H-CD) Binding Assay (High Affinity); details: rat cerebral cortex, ^3 H-CD 1.0 nM, 25° C., 120 minutes, pH 7.4; high affinity agonist binding

Row | Structure (SMILES) | Ki [1] [nM] | Ki [2] [nM]
1 | O=C1[C@@H](O)CCN1CC#CCN1CCCC1 [(S)-3-Hydroxy-1-[4-(1-pyrrolidinyl)-2-butynyl]-2-pyrrolidinone] | 1700 | 7
2 | O=C(NCC#CCN1CCCC1)C(F)(F)F [2,2,2-Trifluoro-N-[4-(1-pyrrolidinyl)-2-butynyl]acetamide monohydrochloride] | 18500 | 8880
3 | CC(C)C(=O)O[C@@H]1CCN(CC#CC[N+](C)(C)C)C1=O [(R)-N,N, N-Trimethyl-4-[3-(2-methyl-1-oxopropoxy)-2-oxo-1-pyrrolidinyl]-2-butyn-1 aminium iodide] | 45000 | 240
4 | C[C@@H]1CCN(CC#CCN(C)C)C1=O [(R)-1-[4-(Dimethylamino)-2-butynyl]-3-methyl-2-pyrrolidinone] | 7700 | 73
5 | COC(=O)O[C@H]1CC(=O)N(CC#CCN2CCCC2)C1 [(S)-Carbonic acid methyl 2-oxo-1-[4-(1-pyrrolidinyl)-2-butynyl]-4-pyrrolidinyl ester] | 1800 | 850
6 | CCCCCCCCCC(=O)O[C@@H]1CCN(CC#CCN(C)C)C1=O [(R)-Decanoic acid 1-[4-(dimethylamino)-2-butynyl]-2-oxo-3-pyrrolidinyl ester] | > 100000 | 730
7 | CS[C@H]1CCN(CC#CC[N+](C)(C)C)C1=O [(S)-N,N, N-Trimethyl-4-[3-(methylthio)-2-oxo1-pyrrolidinyl]-2-butyn-1-aminium iodide] | 1800 | 310
8 | CC(C)C(=O)O[C@H]1CCN(CC#CCN2CCCC2)C1=O [(S)-2-Methylpropanoic acid 2-oxo-1-[4-(1-pyrrolidinyl)-2-butynyl]-3-pyrrolidinyl ester] | 7200 | 162
9 | CCN(CC)CC#CCN1CC[C@H](O[Si](C)(C)C(C)(C)C)C1=O [(S)-1-[4-(diethylamino)-2-butynyl]-3-[[(1,1-dimethylethyl)dimethylsily]oxy]-2-pyrrolidinone] | 7600 | 15400
10 | O=C1[C@@H](O)CCN1CC#CCN1CCC[C@H]1CO [[S-(R*,R*)]-3-Hydroxy-1-[4-[2-(hydroxymethyl)-1-pyrrolidinyl]-2-butynyl]-2-pyrrolidinone] | > 100000 | 34300
11 | CCCCCCCCCC(=O)O[C@@H]1CCN(CC#CCN2CCCC2)C1=O [(R)-Decanoic acid 2-oxo-1-[4-(1-pyrrolidinyl)-2-butynyl]-3-pyrrolidinyl ester] | 200 | 97
12 | CS[C@H]1CCN(CC#CCN2CCCC2)C1=O [(S)-3-(Methylthio)-1-[4-(1-pyrrolidinyl)-2-butynyl]-2-pyrrolidinone] | 53000 | 1040
13 | CC(C)(C)[Si](C)(C)O[C@@H]1CCN(CC#CCN2CCC2)C1=O [(R)-1-[4-(1-Azetidinyl)-2-butynyl]-3-[[(1,1-dimethylethyl)dimethylsilyl]oxy]-2-pyrrolidinone] | > 100000 | > 100000
14 | CC(C)(C)[Si](C)(C)OC[C@H]1CCCN1CC#CCN1CC[C@H](O)C1=O [[S-(R*,S*)]-1-[4-[2-[[[(1,1-Dimethylethyl)dimethylsilyl]-oxy]methyl]-1-pyrrolidinyl]-2-butynyl]-3-hydroxy-2-pyrrolidinone] | 198000 | 1700
15 | CC(=O)O[C@@H]1CCN(CC#CCN2CCC[C@H]2CO[Si](C)(C)C(C)(C)C)C1=O [[R-(R*,S*)]-3-(Acetoxy)-1-[4-[2-[[[(1,1-dimethylethyl)dimethylsilyl]oxy]methyl]-1-pyrrolidinyl]-2-butynyl]-1]-2-pyrrolidinone] | 500000 | 1700
16 | C[N+](C)(C)CC#CCN1CC[C@H](N=[N+]=[N-])C1=O [(S)-4-(3-Azido-2-oxo-1-pyrrolidinyl)-N,N,N-trimethyl-2-butyn-1-aminium iodide] | 1600 | 45
17 | CC(C)C(=O)O[C@@H]1CCN(CC#CCN2CCCC2)C1=O [(R)-2-Methylpropanoic acid 2-oxo-1-[4-(1-pyrrolidinyl)-2-butynyl]-3-pyrrolidinyl ester] | 87000 | 135
18 | CC(C)(C)[Si](C)(C)O[C@@H]1CCN(CC#CCn2ccnc2)C1=O [(R)-3-[[(1,1-Dimethylethyl)-dimethylsilyl]oxy]-1-[4-(1H-imidazol-1-yl)-2-butynyl]-2-pyrrolidinone] | > 100000 | 14000
19 | CCCCCCCCNC(=O)O[C@@H]1CCN(CC#CC[N+](C)(C)C)C1=O [(R)-N,N, N-Trimethyl-4-[3-[[(octylamino)carbonyl]oxy]-2-oxo-1-pyrrolidinyl]-2-butyn-1-aminium iodide] | 500 | 490
20 | CN(C)CC#CCN1CC[C@H](O)C1=O [(S)-1-[4-(Dimethylamino)-2-butynyl]-3-hydroxy-2-pyrrolidinone] | 26900 | 43

Row | Structure (SMILES) | Ki [1] [nM] | Ki [2] [nM]
21 | CC(=O)O[C@H]1CCN(CC#CCN(C)CCO)C1=O [(S)-3-(Acetyloxy)-1-[4-[2-(hydroxyethyl)methylamino]-2-butynyl]-2-pyrrolidinone] | > 100000 | 16200
22 | CCCCCCCCOC(=O)O[C@@H]1CCN(CC#CC[N+](C)(C)C)C1=O [(R)-N,N, N-Trimethyl-4-[3-[[(octyloxy)carbonyl]oxy]-2-oxo-1-pyrrolidinyl]-2-butyn-1-aminium iodide] | 200 | 10
23 | [N-]=[N+]=N[C@H]1CCN(CC#CCN2CCCC2)C1=O [(S)-3-Azido-1-[4-(1-pyrrolidinyl)-2-butynyl]-2-pyrrolidinone] | 3140 | 160
24 | CN(C)CC#CCN1CC[C@H](OC(=O)C(C)(C)C)C1=O [(S)-2,2-Dimethylpropanoic acid 1-[4-(dimethylamino)-2-butynyl]-2-oxo-3-pyrrolidinyl ester] | 484000 | 38800
25 | CCCCCCCCCC(=O)O[C@H]1CC(=O)N(CC#CCN2CCCC2)C1 [(S)-Decanoic acid 2-oxo-1-[4-(1-pyrrolidinyl)-2-butynyl]-4-pyrrolidinyl ester] | 35 | 330
26 | CN(C)CC#CCN1CC[C@@H](O)C1=O [(R)-1-[4-Dimethylamino)-2-butynyl-3-hydroxy-2-pyrrolidinone] | 105000 | 540
27 | CCCCCCCCOC(=O)O[C@@H]1CCN(CC#CCN(C)C)C1=O [(R)-Carbonic acid 1-[4-(dimethylamino)-2-butynyl]-2-oxo-3-pyrrolidinyl octyl ester] | 1500 | 1040
28 | CC(C)(C)[Si](C)(C)OC[C@@H]1CCCN1CC#CCN1CC[C@@H](O)C1=O [[R-(R*,S*)]-1-[4-[2-[[[(1,1-dimethylethyl)dimethylsilyl]oxy]methyl]-1-pyrrolidinyl]-2-butynyl]-3-hydroxy-2-pyrrolidone] | 500 | 470
29 | CN(CC#CCN1CC[C@H](O)C1=O)CCO [(S)-3-Hydroxy-1-[4-[(2-hydroxyethyl)methylamino]-2-butynyl]-2-pyrrolidinone] | > 100000 | 1820
30 | CC(C)(C)C(=O)O[C@@H]1CCN(CC#CC[N+](C)(C)C)C1=O [(R)-3-[3-(2,2-Dimethyl-1-oxopropoxy)-2-oxo-1-pyrrolidinyl]-N,N, N-trimethyl-2-butyn-1-aminium iodide] | > 100000 | 1220
31 | CC(=O)O[C@@H]1CCN(CC#CCN2CCC[C@@H]2CO[Si](C)(C)C(C)(C)C)C1=O [[R-(R*,R*)]-3-Acetyloxy)-1-[4-[2-[[[(1,1-dimethylethyl)-dimethylsilyl]oxy]methyl]-1-pyrrolidinyl]-2-butynyl]-2-pyrrolidinone] | > 100000 | 10100
32 | CC(C)(C)C(=O)O[C@H]1CCN(CC#CC[N+](C)(C)C)C1=O [(S)-4-[3-(2,2-Dimethyl-1-oxopropoxy)-2-oxo-1-pyrrolidinyl]-N,N, N-trimethyl-2-butyn-1-aminium iodide] | 478000 | 7800
33 | CC1CCN(CC#CCN2CCC2)C1=O (racemic) [Racemic 1-[4-(1-azetidinyl)-2-butynyl-3-methyl-2-pyrrolidinone, Racemic 1-[4-(1-azetidinyl)-2-butynyl]-3-methyl-2-pyrrolidinone] | 2000 | 54
34 | CC(C)(C)C(=O)O[C@@H]1CCN(CC#CCN2CCCC2)C1=O [(R)-2,2-Dimethylpropanoic acid 2-oxo-1-[4-(1-pyrrolidinyl)-2-butynyl]-3-pyrrolidinyl ester] | 10200 | 500
35 | CC(=O)O[C@H]1CCN(CC#CCN2CCC[C@@H]2CO[Si](C)(C)C(C)(C)C)C1=O [[S-(R*,S*)]-3-(Acetyloxy)-1-[4-(2-[[[(1,1-dimethylethyl)dimethylsilyl]oxy]methyl]-1-pyrrolidinyl]-2-butynyl]-2-pyrrolidinone] | > 100000 | 4200
36 | CCCCCCOC(=O)O[C@H]1CCN(CC#CCN2CCCC2)C1=O [(S)-Carbonic acid hexyl 2-oxo-1-[4-(1-pyrrolidinyl)-2-butynyl]-3-pyrrolidinyl ester] | 1700 | 15
37 | COC(=O)O[C@@H]1CCN(CC#CCN(C)C)C1=O [(R)-Carbonic acid 1-[4-(dimethylamino)-2-butynyl]-2-oxo-3-pyrrolidinyl methyl ester monohydrochloride] | 52000 | 3070
38 | CC(=O)O[C@@H]1CCN(CC#CCN(C)CCO)C1=O [(R)-3-(Acetyloxy)-1-[4-[2-(hydroxyethyl)methylamino]-2-butynyl]-2-pyrrolidinone] | > 100000 | 28300
39 | CC1CCN(CC#CCN2CCC(O[Si](C)(C)C(C)(C)C)C2)C1=O (stereo not drawn) [[R-(R*,R* and R*,S*)]-1-[4-[3[[(1,1-dimethylethyl)-dimethylsilyl]oxy]-1-pyrrolidinyl-2-butynyl]-3-methyl-2-pyrrolidinone] | > 100000 | > 100000
40 | CC1CCN(CC#CCN2CCCC2CO[Si](C)(C)C(C)(C)C)C1=O (stereo not drawn) [[R-[(R*,R* and R*,S*)]]-1-[4-[2-[[[(1,1-dimethylethyl)dimethylsilyl]oxy]methyl]-1-pyrrolidinyl]-2-butynyl]-3-methyl-2-pyrrolidinone] | 2500 | 5600
